The test system of assay [1] is Mantle cell lymphoma cell line Jeko. Nature of the assay: MTS anti-proliferation assay. It is filed as cell-based. On the procedure: MTS proliferation assays were performed according the CellTiter 96™ Aqueous Cell Proliferation Assay Technical Bulletin (Promega, Madison, Wis.). 5×10^5 cells were plated in each well of a 96-well plate at 37° C. and assayed for proliferation at 24, 48, and 72 hr. Proliferation signal at 50% of control was used as IC50 for growth.
(§1) Following the synthesis of 14 compounds, the anti-proliferation and pro-apoptotic activities of those compounds was evaluated in Mantle cell lymphoma cell line Jeko. Replicate cultures of Jeko were incubated in DMSO and the compounds for 24, 48 and 72 hours. FITC-Annexin V-PI stained flow cytometry was used to detect the apoptotic population of cells (Table 4).
On the technique in general: Formazan colour is commonly taken as a measure of viable cells.

Assay [2] deals with T1, recombinant human PRMT5/MEP50 enzyme (Homo sapiens, UniProt O14744).
T1 construct: purchased BPS Bioscience
As to the kind of experiment: Epigenase PRMT methyltransferase (type II-specific) activity/inhibition assay kit. Conditions: 25 ng recombinant human PRMT5/MEP50 per reaction; read-out: Inhibition of PRMT5 mediated H4R3 methylation (IC50). The format is biochemical. As to the method: The inhibition of PRMT5 mediated H4R3 methylation result was obtained with Epigenase™ PRMT methyltransferase (type II-specific) activity/inhibition assay kit. 25 ng recombinant human PRMT5/MEP50 enzyme (purchased from BPS Bioscience) was used in each reaction.

The subject of assay [3] is PRMT5 expression and phosphorylation levels in AML cells. Nature of the assay: PRMT5 expression and phosphorylation after FLT3 inhibition. The conditions noted are these: FIG. 38C. The format is cell-based.
Procedure: Whole cell lysates were prepared by suspending cell pellets in RIPA buffer for 20 min (1% NP-40, 0.1% SDS, 150 mM NaCl, 50 mM Tris, pH 8.0), then supplemented with 1× complete EDTA free protease inhibitor (Roche) and 1× PhosStop (Roche). Lysates were separated by 4-20% SDS-PAGE and transferred to PVDF membrane (GE Healthcare, Piscataway, N.J.). Membranes were blocked with 5% milk or BSA in 1×TBS with 0.1% Tween 20 for 1 hour at room temperature with shaking. Primary antibodies for ACTIN, GAPDH and FLT3 (Santa Cruz Biotechnology, Santa Cruz Calif.), P65 (Cell signaling), PRMT5 and SP1 (Millipore), H4R3, H3R8, H3 and H4 (Abcam), were diluted 1:1000 or 1:2000 in 5% milk or BSA and incubated for 1-2 hr at room temperature. Membranes were washed using 1×TBS-T, incubated with HRP-conjugated secondary antibodies diluted in 1×TBS-T with 5% milk or BSA, washed, and developed using SuperSignal West Dura Chemiluminescent Substrate (Thermo Scientific).
Assay [4] has as its system Mantle cell lymphoma cell line Jeko. Nature of the assay: Induction of apoptosis, FITC-Annexin V-PI flow cytometry. The format is cell-based. As to the method: Analysis by flow cytometry. Cell viability was also measured by flow cytometry at 24 and 48 hr using annexin-V-FITC and propidium iodide (PI) according to the manufacturer's instructions (BD Biosciences).
as §1
(In general: Flow cytometry measures light scatter and fluorescence of single cells or particles in a stream.)

The target in assay [5] is T2, affinity-purified hSWI/SNF associated PRMT5 (Homo sapiens, UniProt O14744).
T2 construct: made in house
Nature of the assay: Histone methyltransferase assay, [3H]SAM. It is filed as biochemical. Conditions: for inhibition of PRMT5 enzyme: 10 μM, FIG. 17B; for IC50: FIG. 16, 1-40 μM compound, HeLa S3 core histones, read-out: PRMT5 methylation activity IC50. As to the method: (§2) Histone methylation was performed in the presence of DMSO, and 1-40 μM inhibitor compounds. […] After 1.5 h incubation at 30° C., reaction mixtures were spotted on Whatman P-81 filter paper, washed five times with 10 mL of […] sodium carbonate buffer (pH 9.0) to remove unincorporated [3H]SAM, and methylated peptides were detected by scintillation counting.
Type II PRMT enzymes repress gene transcription and symmetrically dimethylate H3R8 and H4R3, while type I PRMT enzymes activate gene transcription and asymmetrically dimethylate H4R3. Purified PRMT5, PRMT1, PRMT4 and PRMT7 were obtained to perform the assay.
(§3) Histone methylation was performed in the presence of DMSO, and 1-40 μM HLCL-32, HLCL-10, HLCL-61 and HLCL-64. […] After a 1.5 h incubation at 30° C. reaction mixtures were spotted on Whatman P-81 filter paper, washed five times with 10 mL of […] sodium carbonate buffer (pH 9.0) to remove unincorporated [^3H]SAM, and methylated peptides were detected by scintillation counting.

The next assay addresses T3, recombinant PRMT1 (Rattus norvegicus, UniProt Q63009).
T3 construct: purchased Millipore 14-474
Nature of the assay: Histone methyltransferase assay, [3H]SAM. The format is biochemical. On the procedure: as §2, §3

Where [6] appears, read: incubation time not given (24, 48, 72 h tested).

One may read the IC50 as the point on the concentration scale where inhibition reaches its midpoint. The EC50 is the concentration giving half of the maximal effect. Read a high EC50 as weaker potency.

T3 sequence (Q63009 whole entry): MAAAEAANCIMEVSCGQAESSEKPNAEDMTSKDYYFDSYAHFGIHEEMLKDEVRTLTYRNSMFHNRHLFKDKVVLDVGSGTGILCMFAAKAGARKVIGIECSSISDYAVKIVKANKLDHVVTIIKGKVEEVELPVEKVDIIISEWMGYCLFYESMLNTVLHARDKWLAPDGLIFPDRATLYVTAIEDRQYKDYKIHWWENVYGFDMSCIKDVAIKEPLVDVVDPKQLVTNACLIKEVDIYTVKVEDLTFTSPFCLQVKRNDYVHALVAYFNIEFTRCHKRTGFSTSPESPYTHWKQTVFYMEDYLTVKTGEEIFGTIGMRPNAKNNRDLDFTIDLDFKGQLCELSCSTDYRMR
T1 sequence (O14744 2-637 limits assumed): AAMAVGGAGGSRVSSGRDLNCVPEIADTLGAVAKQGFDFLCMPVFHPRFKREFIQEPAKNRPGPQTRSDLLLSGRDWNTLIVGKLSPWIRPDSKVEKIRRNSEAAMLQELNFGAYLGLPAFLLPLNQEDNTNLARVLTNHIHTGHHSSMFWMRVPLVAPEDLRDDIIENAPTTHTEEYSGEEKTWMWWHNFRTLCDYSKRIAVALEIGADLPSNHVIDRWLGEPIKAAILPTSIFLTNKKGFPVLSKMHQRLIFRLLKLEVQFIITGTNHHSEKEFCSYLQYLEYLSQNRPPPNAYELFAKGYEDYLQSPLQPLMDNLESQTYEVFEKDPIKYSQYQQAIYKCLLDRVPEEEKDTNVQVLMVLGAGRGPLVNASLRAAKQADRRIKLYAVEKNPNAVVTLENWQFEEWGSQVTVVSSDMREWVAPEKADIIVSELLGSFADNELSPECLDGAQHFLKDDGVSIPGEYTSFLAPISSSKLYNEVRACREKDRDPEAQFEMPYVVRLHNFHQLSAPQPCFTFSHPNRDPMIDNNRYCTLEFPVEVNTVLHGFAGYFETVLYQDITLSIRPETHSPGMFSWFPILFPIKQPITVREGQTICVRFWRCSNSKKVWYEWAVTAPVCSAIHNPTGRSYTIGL
T1 sequence (Q9BQA1 2-342 partner limits assumed): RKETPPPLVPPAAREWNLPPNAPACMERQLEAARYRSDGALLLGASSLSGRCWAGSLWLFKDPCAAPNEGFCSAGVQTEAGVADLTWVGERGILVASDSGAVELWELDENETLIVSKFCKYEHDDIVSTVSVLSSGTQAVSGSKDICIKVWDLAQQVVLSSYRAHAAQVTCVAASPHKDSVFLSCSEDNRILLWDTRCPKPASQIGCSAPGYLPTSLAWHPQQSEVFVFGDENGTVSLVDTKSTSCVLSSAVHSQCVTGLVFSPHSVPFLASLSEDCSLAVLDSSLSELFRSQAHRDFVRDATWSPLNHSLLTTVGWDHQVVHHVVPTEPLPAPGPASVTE
T2 sequence (O14744 whole entry): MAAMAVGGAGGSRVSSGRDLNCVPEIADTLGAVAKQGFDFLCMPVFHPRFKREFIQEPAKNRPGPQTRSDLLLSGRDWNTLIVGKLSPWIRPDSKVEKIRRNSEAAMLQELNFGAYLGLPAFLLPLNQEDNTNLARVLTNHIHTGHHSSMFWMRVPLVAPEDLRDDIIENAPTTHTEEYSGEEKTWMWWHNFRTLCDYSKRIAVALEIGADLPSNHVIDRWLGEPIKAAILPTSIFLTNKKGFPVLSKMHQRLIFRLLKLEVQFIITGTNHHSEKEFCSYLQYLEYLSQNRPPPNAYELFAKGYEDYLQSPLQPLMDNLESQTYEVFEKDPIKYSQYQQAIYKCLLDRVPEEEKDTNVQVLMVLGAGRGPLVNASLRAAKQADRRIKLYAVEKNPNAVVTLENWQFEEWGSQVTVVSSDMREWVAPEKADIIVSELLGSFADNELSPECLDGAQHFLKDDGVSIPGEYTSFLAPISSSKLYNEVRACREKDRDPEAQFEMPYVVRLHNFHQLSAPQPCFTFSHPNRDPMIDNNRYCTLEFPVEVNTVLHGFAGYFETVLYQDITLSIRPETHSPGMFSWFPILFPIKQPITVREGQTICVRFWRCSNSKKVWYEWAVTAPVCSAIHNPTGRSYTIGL
T2 sequence (Q9BQA1 whole entry partner): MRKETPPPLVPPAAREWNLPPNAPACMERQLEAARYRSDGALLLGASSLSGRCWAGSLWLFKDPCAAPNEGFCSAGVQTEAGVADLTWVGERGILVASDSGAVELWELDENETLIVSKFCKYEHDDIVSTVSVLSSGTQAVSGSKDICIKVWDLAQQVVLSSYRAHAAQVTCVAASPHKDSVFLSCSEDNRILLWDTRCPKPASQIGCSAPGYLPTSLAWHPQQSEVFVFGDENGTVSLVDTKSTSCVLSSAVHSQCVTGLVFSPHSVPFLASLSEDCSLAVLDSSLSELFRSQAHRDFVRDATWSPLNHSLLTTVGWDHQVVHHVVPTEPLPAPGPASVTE

`CCn1c2ccccc2c2cc(CNc3ccc(S(C)(=O)=O)cc3)ccc21` [HLCL-9]: the 50% inhibitory concentration (IC50) in assay [1] (setting [6]) and in assay [2] was greater than 50 µM each time.

With `CS(=O)(=O)c1ccc(Cn2c3ccccc3c3ccccc32)cc1` [HLCL-1], the concentration for half-maximal inhibition (IC50) in assay [1] (setting [6]) and in assay [2] was greater than 50 µM each time.

For `CS(=O)(=O)c1ccc(/C=C/Cn2c3ccccc3c3ccccc32)cc1` [HLCL-63], the IC50 in assay [1] (setting [6]) and in assay [2] was greater than 50 µM in each case.

For the molecule `CS(=O)(=O)c1ccc(NCCn2c3ccccc3c3ccccc32)cc1` [HLCL-23], the half-inhibitory concentration (IC50) in assay [1] (setting [6]) and in assay [2] was greater than 50 µM in each case.

Take `CCn1c2ccccc2c2cc(NC(=S)Nc3ccc(S(C)(=O)=O)cc3)ccc21` [HLCL-6]: the 50% inhibitory concentration (IC50) in assay [1] (setting [6]) and in assay [2] was greater than 50 µM each time.

As to `COc1ccc(C(=O)Nc2sc3c(c2C(N)=O)CCCC3)cc1OC` [FLT3 inhibitor (CALBIOCHEM #343020)], the “PRMT5 expression and phosphorylation levels” value in assay [3] is given as “did not change”.

As to `CCn1c2ccccc2c2cc(CNCc3ccc(S(C)(=O)=O)cc3)ccc21` [HLCL-10], the half-maximal inhibitory concentration (IC50) in assay [1] (24 h incubation) is 84 µM; in assay [1] (48 h incubation), 47 µM; in assay [1] (72 h incubation), 60 µM; in assay [2], greater than 50 µM; in assay [5], roughly 5 µM. In addition, the EC50 in assay [4] (24 h) turned out to be 40 µM; in assay [4] (48 h), 35 µM. For the same molecule, in assay [5], the “inhibition of PRMT5 enzyme” value is “the only enzyme that is affected is PRMT5”. In addition, the “inhibition of PRMT1 enzyme” value on recombinant PRMT1 (10 μM, FIG. 17B) was “this non-specific activity is lost”; at recombinant PRMT1 (20 μM and above, FIG. 17A), “non-specific inhibition”.

Take `CS(=O)(=O)c1ccc(C(O)C(O)Cn2c3ccccc3c3ccccc32)cc1` (stereo not drawn) [HLCL-17&20]: the IC50 in assay [1] (setting [6]) and in assay [2] was greater than 50 µM throughout.

With `CCn1c2ccccc2c2cc(CNc3ccc(S(N)(=O)=O)cc3)ccc21` [HLCL-32], the IC50 in assay [1] (24 h incubation) was 51 µM; in assay [1] (48 h incubation) it was 29 µM; in assay [1] (72 h incubation), 29 µM; in assay [2] it was greater than 50 µM; in assay [5], roughly 5 µM. The half-maximal effective concentration (EC50) in assay [4] (24 h) came out at 30 µM; in assay [4] (48 h) it was 20 µM. Further, the “inhibition of PRMT5 enzyme” value in assay [5] is on record as “the only enzyme that is affected is PRMT5”. The “inhibition of PRMT1 enzyme” value on recombinant PRMT1 (10 μM, FIG. 17B) is listed as “this non-specific activity is lost”; on recombinant PRMT1 (20 μM and above, FIG. 17A) it was “non-specific inhibition”.

For `CO[C@@H]1[C@H](N(C)C(=O)c2ccccc2)C[C@H]2O[C@]1(C)n1c3ccccc3c3c4c(c5c6ccccc6n2c5c31)C(=O)NC4` [PKC412], in assay [3], the “PRMT5 expression and phosphorylation levels” value is given as “did not change”.

With `CCn1c2ccccc2c2cc(/C=N/Nc3ccc(S(C)(=O)=O)cc3)ccc21` [HLCL-12], the IC50 in assay [1] (setting [6]) and in assay [2] was greater than 50 µM throughout.

For the molecule `CS(=O)(=O)c1ccc(/C=C\Cn2c3ccccc3c3ccccc32)cc1` [HLCL-64], the IC50 in assay [1] (setting [6]) is greater than 50 µM; in assay [2], greater than 50 µM; in assay [5], roughly 5 µM. Also, the “inhibition of PRMT5 enzyme” value in assay [5] is “the only enzyme that is affected is PRMT5”. For the same molecule, the “inhibition of PRMT1 enzyme” value on recombinant PRMT1 (10 μM, FIG. 17B) is on record as “this non-specific activity is lost”; on recombinant PRMT1 (20 μM and above, FIG. 17A) it was “non-specific inhibition”.
